From US6525001B1, “Substituted pyrimidine and pyridine herbicides” (Mid-American Commercialization Corporation, priority 1997, dated 2003)

What was measured:
Format in all cases: in vivo
Design in all cases: key: 0 is no effect; 10 is complete control
rape (Brassica napus) = test: Test B pre-/postemergence
How it was run: (§1)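 Scored visually 0 (none) to 10 (complete control) against untreated plants after twelve to sixteen greenhouse days. Test chemicals, formulated in surfactant-containing non-phytotoxic solvent, applied to soil after planting and, separately, onto 1- to 4-leaf (2–18 cm) plants.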

[1] = system: velvetleaf (Abutilon theophrasti); test: Test B pre-/postemergence
How it was run: as §1

[2] = system: giant foxtail (Setaria faberii); test: Test B pre-/postemergence
How it was run: as §1

soybean (Glycine max) = test: Test B pre-/postemergence
How it was run: as §1

wild oat (Avena fatua) = test: Test B pre-/postemergence
How it was run: as §1

[3] = system: momingglory (Ipomoea hederacea); test: Test B pre-/postemergence
How it was run: as §1

[4] = system: crabgrass (Digitaria sanguinalis); test: Test B pre-/postemergence; details: for Crabgrass plant response rating: Preemergence
How it was run: as §1

[5] = system: broadleaf signalgrass (Brachiaria decumbens); test: Test B pre-/postemergence; details: for B. signalgrass plant response rating: Preemergence
How it was run: as §1

[6] = system: purple nutsedge (Cyperus rotundus); test: Test B pre-/postemergence
How it was run: as §1

[7] = system: blackgrass (Alopecurus myosuroides); test: Test B pre-/postemergence; details: for Blackgrass plant response rating: Preemergence
How it was run: as §1

[8] = system: bedstraw (Galium aparine); test: Test B pre-/postemergence; details: for Bedstraw plant response rating: Preemergence
How it was run: as §1

[9] = system: pigweed (Amaranthus retroflexus); test: Test B pre-/postemergence
How it was run: as §1

[10] = system: cocklebur (Xanthium strumarium); test: Test B pre-/postemergence; details: for Plant response rating, Cocklebur: Postemergence; for Cocklebur plant response rating: Preemergence
How it was run: as §1

[11] = system: wheat (Triticum aestivum); test: Test B pre-/postemergence
How it was run: as §1

corn (Zea mays) = test: Test B pre-/postemergence; details: for Corn plant response rating: Preemergence
How it was run: as §1

[12] = system: sugar beet (Beta vulgaris); test: Test B pre-/postemergence
How it was run: as §1

[13] = system: bamyardgrass (Echinochloa crus-galli); test: Test B flood test
How it was run: (§2)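 Flood test on plants grown to the 2-leaf stage; treated plants kept in greenhouse twelve to sixteen days, then visually rated against controls on a 0 (no effect) to 10 (complete control) scale.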

[14] = system: duck salad (Heteranthera limosa); test: Test B flood test
How it was run: as §2

rice (Oryza sativa) = test: Test B flood test
How it was run: as §2

[15] = system: smallflower flatsedge (Cyperus difformis); test: Test B flood test
How it was run: as §2

[16] = Rate 250 g/ha, Postemergence (so in the source)
[17] = Rate 62 g/ha, Postemergence (flood test)
[18] = Rate 125 g/ha, Postemergence, flood test
[19] = Rate 250 g/ha, Postemergence (flood test species)
[20] = Rate 125 g/ha, Postemergence section (flood test species)

SMILES: Cc1cnc(-c2ccc(Cl)c(Cl)c2)nc1Cc1cccc(C#N)c1 [Compound 38]
- Plant response rating, Rape (rape (Brassica napus); Rate 62 g/ha, Postemergence): 3
- Rape plant response rating (rape (Brassica napus); Rate 62 g/ha, Preemergence): 0
- Rape plant response rating (rape (Brassica napus); Rate 125 g/ha, Postemergence): 3
- Rape plant response rating (rape (Brassica napus); Rate 125 g/ha, Preemergence): 0
- Plant response rating, Rape (rape (Brassica napus); Rate 250 g/ha, Postemergence): 6
- Plant response rating, Rape (rape (Brassica napus); [16]): 0
- Plant response rating, Velvetleaf ([1]; Rate 62 g/ha, Postemergence): 1
- Velvetleaf plant response rating ([1]; Rate 62 g/ha, Preemergence): 0
- Velvetleaf plant response rating ([1]; Rate 125 g/ha, Postemergence): 1
- Plant response rating, Velvetleaf ([1]; Rate 125 g/ha, Preemergence): 0
- Plant response rating, Velvetleaf ([1]; Rate 250 g/ha, Postemergence): 2
- Plant response rating, Velvetleaf [1, 16]: 0
- Plant response rating, Giant foxtail ([2]; Rate 62 g/ha, Postemergence): 0
- Giant foxtail plant response rating ([2]; Rate 62 g/ha, Preemergence): 0
- Giant foxtail plant response rating ([2]; Rate 125 g/ha, Postemergence): 1
- Giant foxtail plant response rating ([2]; Rate 125 g/ha, Preemergence): 1
- Plant response rating, Giant foxtail ([2]; Rate 250 g/ha, Postemergence): 0
- Plant response rating, Giant foxtail [2, 16]: 1
- Plant response rating, Soybean (soybean (Glycine max); Rate 62 g/ha, Postemergence): 1
- Soybean plant response rating (soybean (Glycine max); Rate 62 g/ha, Preemergence): 0
- Soybean plant response rating (soybean (Glycine max); Rate 125 g/ha, Postemergence): 1
- Plant response rating, Soybean (soybean (Glycine max); Rate 125 g/ha, Preemergence): 0
- Plant response rating, Soybean (soybean (Glycine max); Rate 250 g/ha, Postemergence): 1
- Plant response rating, Soybean (soybean (Glycine max); [16]): 0
- Wild oats plant response rating (wild oat (Avena fatua); Rate 62 g/ha, Postemergence): 1
- Wild oats plant response rating (wild oat (Avena fatua); Rate 62 g/ha, Preemergence): 0
- Wild oats plant response rating (wild oat (Avena fatua); Rate 125 g/ha, Postemergence): 1
- Plant response rating, Wild oats (wild oat (Avena fatua); Rate 125 g/ha, Preemergence): 0
- Plant response rating, Wild oats (wild oat (Avena fatua); Rate 250 g/ha, Postemergence): 1
- Plant response rating, Wild oats (wild oat (Avena fatua); [16]): 0
- Plant response rating, Morningglory ([3]; Rate 62 g/ha, Postemergence): 1
- Morningglory plant response rating ([3]; Rate 62 g/ha, Preemergence): 0
- Morningglory plant response rating ([3]; Rate 125 g/ha, Postemergence): 1
- Morningglory plant response rating ([3]; Rate 125 g/ha, Preemergence): 0
- Plant response rating, Morningglory ([3]; Rate 250 g/ha, Postemergence): 1
- Plant response rating, Morningglory [3, 16]: 0
- Plant response rating, Crabgrass ([4]; Rate 62 g/ha, Postemergence): 0
- Crabgrass plant response rating ([4]; Rate 62 g/ha): 0
- Plant response rating, Crabgrass ([4]; Rate 125 g/ha, Postemergence): 0
- Crabgrass plant response rating ([4]; Rate 125 g/ha): 0
- Plant response rating, Crabgrass ([4]; Rate 250 g/ha, Postemergence): 1
- Plant response rating, Crabgrass [4, 16]: 0
- Plant response rating, B. signalgrass ([5]; Rate 62 g/ha, Postemergence): 1
- B. signalgrass plant response rating ([5]; Rate 62 g/ha): 0
- Plant response rating, B. signalgrass ([5]; Rate 125 g/ha, Postemergence): 1
- B. signalgrass plant response rating ([5]; Rate 125 g/ha): 0
- Plant response rating, B. signalgrass ([5]; Rate 250 g/ha, Postemergence): 1
- Plant response rating, B. signalgrass ([5]; Rate 250 g/ha, Postemergence as printed in head r139 (second section for compounds 26-50)): 1
- Plant response rating, Nutsedge ([6]; Rate 62 g/ha, Postemergence): 0
- Nutsedge plant response rating ([6]; Rate 62 g/ha, Preemergence): 0
- Nutsedge plant response rating ([6]; Rate 125 g/ha, Postemergence): 0
- Nutsedge plant response rating ([6]; Rate 125 g/ha, Preemergence): 0
- Plant response rating, Nutsedge ([6]; Rate 250 g/ha, Postemergence): 0
- Plant response rating, Nutsedge [6, 16]: 0
- Plant response rating, Blackgrass ([7]; Rate 62 g/ha, Postemergence): 0
- Blackgrass plant response rating ([7]; Rate 62 g/ha): 0
- Plant response rating, Blackgrass ([7]; Rate 125 g/ha, Postemergence): 0
- Blackgrass plant response rating ([7]; Rate 125 g/ha): 0
- Plant response rating, Blackgrass ([7]; Rate 250 g/ha, Postemergence): 0
- Plant response rating, Blackgrass [7, 16]: 0
- Plant response rating, Bedstraw ([8]; Rate 62 g/ha, Postemergence): 7
- Bedstraw plant response rating ([8]; Rate 62 g/ha): 0
- Plant response rating, Bedstraw ([8]; Rate 125 g/ha, Postemergence): 7
- Bedstraw plant response rating ([8]; Rate 125 g/ha): 1
- Plant response rating, Bedstraw [8, 16]: 2
- Plant response rating, Redroot pigweed ([9]; Rate 62 g/ha, Postemergence): 2
- Redroot pigweed plant response rating ([9]; Rate 62 g/ha, Preemergence): 0
- Redroot pigweed plant response rating ([9]; Rate 125 g/ha, Postemergence): 4
- Redroot pigweed plant response rating ([9]; Rate 125 g/ha, Preemergence): 0
- Plant response rating, Redroot pigweed ([9]; Rate 250 g/ha, Postemergence): 5
- Plant response rating, Redroot pigweed [9, 16]: 0
- Plant response rating, Cocklebur ([10]; Rate 62 g/ha): 4
- Cocklebur plant response rating ([10]; Rate 62 g/ha): 0
- Plant response rating, Cocklebur ([10]; Rate 125 g/ha): 7
- Cocklebur plant response rating ([10]; Rate 125 g/ha): 0
- Plant response rating, Cocklebur ([10]; Rate 250 g/ha): 8
- Wheat plant response rating ([11]; Rate 62 g/ha, Postemergence): 1
- Wheat plant response rating ([11]; Rate 62 g/ha, Preemergence): 0
- Wheat plant response rating ([11]; Rate 125 g/ha, Postemergence): 1
- Plant response rating, Wheat ([11]; Rate 125 g/ha, Preemergence): 0
- Plant response rating, Wheat ([11]; Rate 250 g/ha, Postemergence): 1
- Plant response rating, Wheat [11, 16]: 0
- Plant response rating, Corn (corn (Zea mays); Rate 62 g/ha, Postemergence): 1
- Corn plant response rating (corn (Zea mays); Rate 62 g/ha): 0
- Plant response rating, Corn (corn (Zea mays); Rate 125 g/ha, Postemergence): 1
- Corn plant response rating (corn (Zea mays); Rate 125 g/ha): 0
- Plant response rating, Corn (corn (Zea mays); Rate 250 g/ha, Postemergence): 1
- Plant response rating, Corn (corn (Zea mays); [16]): 0
- Plant response rating, Sugarbeets ([12]; Rate 62 g/ha, Postemergence): 9
- Sugarbeets plant response rating ([12]; Rate 62 g/ha, Preemergence): 0
- Sugarbeets plant response rating ([12]; Rate 125 g/ha, Postemergence): 9
- Plant response rating, Sugarbeets ([12]; Rate 125 g/ha, Preemergence): 0
- Plant response rating, Sugarbeets ([12]; Rate 250 g/ha, Postemergence): 9
- Plant response rating, Sugarbeets [12, 16]: 0
- Plant response rating, Barnyardgrass [13, 17]: 0
- Plant response rating, Barnyardgrass [13, 18]: 0
- Plant response rating, Barnyardgrass [13, 19]: 0
- Plant response rating, Ducksalad [14, 17]: 0
- Plant response rating, Ducksalad [14, 18]: 0
- Plant response rating, Ducksalad [14, 19]: 0
- Plant response rating, Rice (rice (Oryza sativa); [17]): 0
- Rice plant response rating (rice (Oryza sativa); [20]): 0
- Plant response rating, Rice (rice (Oryza sativa); [19]): 0
- Plant response rating, S. Flatsedge [15, 17]: 0
- S. Flatsedge plant response rating [15, 20]: 3
- Plant response rating, S. Flatsedge [15, 19]: 4
